Measurements reported in US20050010126A1, “Assessment of concentration of inhalational compounds in the brain” (priority 2001, published 2005).
Values belong to the molecule of their own block, whether it stands above or below them.

Tests used:
[1] = alveolar membrane factor M of an inhalational compound; type: in vivo, patients
Description: As the gas penetrates the alveolar membrane and enters the pulmonary capillary blood flow, it must follow the Fick's principal. See Katzung, R. G. (1998) Basic principles, introduction in basic and clinical pharmacology Appleton-Lange p 5. The Fick's principal defines the rate of penetrating the alveolar membrane as: DAk/x (Ci-Cb') D is a diffusion constant, A is the area of the membrane (proportional to the pulmonary capillary flow or cardiac output), k is a solubility coefficient, x is the thickness of the membrane, Ci is an inspired compound concentration, and Cb' is the mixed venous compound concentration. Assuming that the pulmonary capillary flow or the cardiac output is constant, then, for a given inhalational compound, DAk/x is a constant. This constant DAk/x is defined as a membrane factor, M, which varies from one inhalational compound to another. […] Since the membrane factor may vary slightly among patients, a more precise determination of the membrane factor can be performed as described below. The rate of penetrating the alveolar membrane DAk/x (Ci-Cb') can be expressed as: M(Ci-Cb'), in which M is DAk/x. When measuring an uptake of an inhalational compound-containing gas in each breathing cycle, the rate of the uptake is a function of a difference between the inspired concentration (Ci) and the expired concentration (Ce). The difference can be expressed as: Ci-Ce. Ci-Ce. and M (Ci-Cb') both represent the rate of uptake of an inhalational compound: Ci-Ce=M(Ci-Cb'), or M=(Ci-Ce)/(Ci-Cb'). During the initial introduction of an inhalational compound (before the FRC is filled with the gas), the membrane factor M for an individual can be approximated by assuming Cb'=0: M=(Ci-Ce)/Ci=1-(Ce/Ci).

[2] = assessment of mixed venous and brain anesthetic concentration from inspired and expired concentrations
Description: At the stage of anesthesia (after the FRC is filled with the gas), the equation: Ci′−Ce′=M (Ci′−Cb′) can be used to calculate the compound concentration in the mixed venous blood (Cb′), in which Ci′ and Cb′ are the inspired compound concentration and the expired compound concentration, respectively: Cb′=[Ci′(M−1)+Ce′]/M.
As discussed above, Cb=(A+J)/2 and (A+J)/2=(Ce′+2Cb′)/3 or (Ce′+3Cb′)/4, the compound concentration in the brain (Cb) can be expressed as: Cb=(Ce′+2Cb′)/3 or (Ce+3Cb′)/4.
Thus, with measurements of the expired compound concentration (Ce′) and the mixed venous compound concentration (Cb′), the compound concentration in the brain (Cb) can be readily obtained. Below are two examples of how to assess brain anesthetic concentrations by this method.
A tube is connected to the circle system of an anesthesia machine consisting of gas flowmeters, a compound vaporizer, supply of oxygen, air and nitrous oxide gas, and a ventilator (e.g., Detex-Ohmeda, Finland, or Drager, Germany). The gas is then delivered to the patient by the anesthesia machine. […] Near the connection between the circle system and the tube, a side arm sampling site is linked to a gas monitoring equipment (e.g., an infra-red monitor or a mass spectrometer). Typically, a sampling speed is 200 mL/min. […] A more precise determination of M is performed at the end of 3 min, when 85-95% of the FRC has been filled with the gas.

[3] = general value for the compound, for most patients

SMILES: FC(F)OC(F)C(F)(F)F (stereo not drawn) [desflurane]
- patient's membrane factor M = (Ci-Ce)/Ci ([1]; desflurane, inspired 6%, expired 4.8% at 3-4 minutes (85-95% of FRC filled)): 0.2
- membrane factor M (DAk/x) [1, 3]: 0.2
- concentration in the brain (Cb) = (Ce'+3Cb')/4 ([2]; desflurane, inspired 6.2%, expired 5.4%, M 0.2): 3.0%

SMILES: FC(F)(F)C(Cl)Br (stereo not drawn) [halothane]
- membrane factor M (DAk/x) ([1]; human, in vivo): 0.5

SMILES: COC(F)(F)C(Cl)Cl [methoxyflurane]
- membrane factor M (DAk/x) [1, 3]: 0.8

Now from value to molecule:

- membrane factor M (DAk/x) ([1]; human, in vivo): 0.4
SMILES: FC(F)OC(Cl)C(F)(F)F (stereo not drawn) [isoflurane]

- patient's membrane factor M = (Ci-Ce)/Ci ([1]; human, in vivo): 0.214
- brain concentration (Cb) = (Ce'+2Cb')/3 ([2]; human, in vivo, 30 min): 1.77%
- concentration in the mixed venous blood (Cb') ([2]; human, in vivo, 30 min): 1.16%
SMILES: FCOC(C(F)(F)F)C(F)(F)F [sevoflurane]
